Experimental data taken from patent US10974293B2, “Device for phyto-ecological monitoring” (priority 2014, dated 2021).
Read-outs that look alike come from different tables or passages of the source.

Tested on: lettuce
Type: in vivo, Lactuca vulgaris
Conditions: arsenic in water 0 to 100 ppm
Excerpt: The arbuscular mycorrhizal spore germination and growth assay (a) consists of a glass slide (22) with a strip of blotter paper (25) of the same width as the glass slide overlain upon it. A semi-circle of gridded, nitrocellulose filter paper is laid on top of the blooter paper. Fungal spores are then placed into one or more segments of the grid, and then covered with a cover slip (not shown). The entire assembly is then held together using non-toxic retainer rings, or alternatively glued together with a non-toxic glue. When the glass slide assay is placed into the slider cartridge (21, FIG. 5) and then into the device of current invention, and deployed in the field and exposed to moisture, the spores produce hyphae, which can be quantitatively observed using optical microscope. The degree of branching of hyphae can be used as outcome of the assay and correlated with contaminants present in the soil and/or water. The small seed germination assay (b) (FIG. 6) also contains a glass slide with two layers of fitted blotter paper strips (25): first layer of fitied blotter paper is the strip without holes, and a second blotter paper strip which has holes of about 2-3 mm in diameter as shown in FIG. 6. Plant seeds (26) are placed in one or more holes, and the assembly is then covered with a standard laboratory cover slip and held together by a non-toxic retaining ring or a glue. […]

With `[AsH3]` [arsenic] the “root growth response to arsenic exposure” value (horizontally grown seedlings) was “not evident” and the “root growth response to arsenic exposure” value (vertically oriented seedlings) was “hermetic response (enhanced growth at low concentrations of a toxicant)”.
